Source: patent US4786635A, “Novel benzothiazine derivatives” (Santen Pharmaceutical Co., Ltd., priority 1985, dated 1988)
Counter-ions that a name gives are not always drawn.

tested on: Isolated guinea-pig taenia coli; experiment: calcium-antagonistic activity: inhibition of CaCl2-induced contraction of isolated guinea-pig taenia coli; format: cell-based; conditions: Cavia porcellus, Ca^++ -free Krebs solution, 32° C., test compound 5 minutes before CaCl2 (3×10^-4 M), isotonic recording, read-out: IC50 (concentration of the test compound which elicited 50% inhibition of Ca^++ -induced contraction)
Description: (Method for mesurement of calcium-antagonistic activity) Isolated guinea-pig taenia coli was suspended in a 20 ml organ bath filled with Krebs solution at32° C. and bubbled with 5% carbon dioxide in oxygen. After equilibration, the muscle was suspended in Ca^++ -free Krebs solution. The muscle was then exposed to the test compound for 5 minutes before the addition of CaCl2, and the contraction induced by CaCl2 (3×10^-4 M) was recorded isotonically. The calcium-antagonistic activity was represented by the concentration of the test compound which elicited 50% inhibition (IC50) of Ca^++ -induced contraction.

| SMILES | IC50 |
| --- | --- |
| COc1ccc(OCCCCN(C)CCOc2ccc3c(c2)OCO3)c(C2Sc3ccccc3N(C)C2=O)c1 (stereo not shown) [Compound A, 3,4-dihydro-2-[5-methoxy-2-[4-[N-methyl-N-[2-[(3,4-methylenedioxy)phenoxy]ethyl]amino]butoxy]phenyl]-4-methyl-3-oxo-2H-1,4-benzothiazine oxalate] | 320 nM |
| COc1ccc(OCCCN(C)CCOc2ccc3c(c2)OCO3)c(C2Sc3ccccc3N(C)C2=O)c1 (stereo not shown) [Compound B, 3,4-dihydro-2-[5-methoxy-2-[3-[N-methyl-N-[2-[(3,4-methylenedioxy)phenoxy]ethyl]amino]propoxy]phenyl]-4-methyl-3-oxo-2H-1,4-benzothiazine fumarate] | 240 nM |
| COc1ccc(OCCCCN(C)CCOc2ccc(OC)c(OC)c2)c(C2Sc3ccccc3N(C)C2=O)c1 (stereo not shown) [Compound C, 3,4-dihydro-2-[5-methoxy-2-[4-[N-methyl-N-[2-[(3,4-dimethoxy)phenoxy]ethyl]amino]butoxy]phenyl]-4-methyl-3-oxo-2H-1,4-benzothiazine oxalate] | 290 nM |
| COc1ccc(OCCCCN(C)CCc2ccc(OC)c(OC)c2)c(C2Sc3ccccc3N(C)C2=O)c1 (stereo not shown) [Reference Compound, 3,4-dihydro-2-[5-methoxy-2-[4-[N-methyl-(3,4-dimethoxy)phenetylamino]butoxy]phenyl]-4-methyl-3-oxo-2H-1,4-benzothiazine oxalate, reference compound] | 3200 nM |
